Some test systems named below: SNB-19; TK-10; A498; HCT-15; HCC 2998; SK-MEL-2; HOP-62; KM12; CCRF-CEM; NCI-H226; ACHN; 786-0; K562; NCI-H23; UACC-62; MCF7; PC-3; MDA-MB-231.
Common to all, as to experiment: growth of human tumour cells (NCI), 48 h

Consider 13 compounds from ChEMBL document CHEMBL1201862, “PubChem BioAssay data set” (2004).

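In this assay, cells in 96-well plates receive the compound at five concentrations for 48 hours. Endpoints are linearly interpolated between the surrounding concentrations. GI50 is the concentration that inhibits growth by half.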 Activity calls are given as the source filed them. No stated cut-off is given here; in the data, active = GI50 up to about 1.1 µM and inactive = higher.

Regarding `Nc1ccc(C(=O)N/C(=C\c2cccc([N+](=O)[O-])c2)c2nc3ccccc3[nH]2)cc1`, the GI50 is 40.6 µM (inactive) with SNB-19; 49 µM (inactive) in the assay with TK-10; 61.8 µM (inactive) in the assay on A498; 76.6 µM in the assay with HCT-15; > 100 µM (inactive) with HCC 2998; 37.2 µM (inactive) with SK-MEL-2. The GI50 was 21.8 µM (inactive) with HOP-62; > 100 µM (inactive) with KM12; > 100 µM (inactive) in the assay on CCRF-CEM; > 100 µM (inactive) in the assay on NCI-H226; 40.6 µM (inactive) in the assay with ACHN; 28.4 µM (inactive) in the assay on 786-0. The GI50 in the assay on K562 is > 100 µM (inactive); in the assay on NCI-H23, > 75.9 µM (inactive); in the assay on UACC-62, 46 µM (inactive).
On to `C[Si](C)(C)CN1C(=O)c2ccccc2C1(O)c1ccccc1` (stereo not given), for which the GI50 with SNB-19 is > 100 µM (inactive); in the assay with TK-10, > 100 µM (inactive); in the assay on A498, > 100 µM (inactive); in the assay with HCT-15 it was above 68.4 µM; in the assay with HCC 2998, > 100 µM (inactive); in the assay on SK-MEL-2, 97.1 µM (inactive). Moreover, the GI50 in the assay with HOP-62 was > 100 µM (inactive); in the assay with KM12, 59.7 µM (inactive); in the assay with CCRF-CEM, 66.4 µM (inactive); in the assay with NCI-H226 it was > 100 µM (inactive); in the assay on ACHN, 56.1 µM (inactive); in the assay with 786-0, > 100 µM (inactive). Moreover, the figures for the GI50 with K562, in the assay with NCI-H23 and in the assay on UACC-62 were 40.1 µM (inactive), 50.6 µM (inactive) and 62.7 µM (inactive), respectively.
Take `Cc1cc2c(c(C#N)c1C)NC(=O)C(CC(=O)O)C2=O` (stereo not given): the GI50 in the assay on TK-10 was > 100 µM (inactive); in the assay on A498, > 100 µM (inactive); in the assay on HCT-15, above 100 µM; in the assay on HCC 2998 it was > 100 µM (inactive); with SK-MEL-2, > 100 µM (inactive); in the assay with HOP-62 it was > 100 µM (inactive). Also, the GI50 in the assay on KM12, in the assay on CCRF-CEM, with NCI-H226, in the assay with ACHN, in the assay with 786-0 and in the assay on K562 was > 100 µM (inactive) throughout. The GI50 in the assay with NCI-H23 and with UACC-62 was > 100 µM (inactive) each time.
Turning to `COC(=O)NN1C(C)=C(C(=O)OC)C2(CCOC2=O)C1(C)O` (stereo not given), the GI50 was > 100 µM (inactive) with SNB-19; > 100 µM (inactive) in the assay with TK-10; > 100 µM (inactive) in the assay with A498; above 100 µM in the assay on HCT-15; > 100 µM (inactive) in the assay with HCC 2998; > 100 µM (inactive) in the assay on SK-MEL-2. For the same compound, the GI50 in the assay on HOP-62, in the assay with KM12, in the assay with CCRF-CEM, with NCI-H226, in the assay on ACHN and with 786-0 was > 100 µM (inactive) each time. The GI50 in the assay on K562, in the assay with NCI-H23 and in the assay on UACC-62 was > 100 µM (inactive) each time.
Turning to `N#C/C(N)=N/c1ccccc1`, the GI50 with SNB-19 was > 100 µM (inactive); in the assay with TK-10, > 100 µM (inactive); with A498, > 100 µM (inactive); in the assay on HCT-15 it was above 100 µM; in the assay on HCC 2998, > 100 µM (inactive); with SK-MEL-2 it was > 100 µM (inactive). In addition, the GI50 in the assay on HOP-62, with KM12, with CCRF-CEM, in the assay on NCI-H226, with ACHN and with 786-0 was > 100 µM (inactive) throughout. Besides, the GI50 was 71 µM (inactive) in the assay with K562, > 100 µM (inactive) in the assay on NCI-H23 and > 100 µM (inactive) in the assay with UACC-62.
On to `Cc1ccc(NC(=O)CC2SC(Nc3ccc(Cl)cc3)=NC2=O)cc1C` (stereo not given), for which the GI50 with SNB-19 is > 78.3 µM (inactive); in the assay with TK-10, 17.3 µM (inactive); with A498, 23 µM (inactive); with HCT-15, 15.2 µM; in the assay with HCC 2998, 18.6 µM (inactive); in the assay with SK-MEL-2 it was 12.7 µM (inactive). Also, the GI50 with HOP-62 is > 100 µM (inactive); with KM12, 19.9 µM (inactive); with CCRF-CEM, 3.24 µM (inactive); with NCI-H226 it was > 47.2 µM (inactive); with ACHN, 16.1 µM (inactive); with 786-0 it was 17.8 µM (inactive). Also, the GI50 in the assay with K562 is 3.75 µM (inactive); in the assay with NCI-H23, 19 µM (inactive); in the assay with UACC-62, 18.3 µM (inactive).
On to `CC(=O)Nc1ccc2cc(C#N)c(=O)[nH]c2n1`, for which the GI50 with MCF7 is > 100 µM (inactive); in the assay on SNB-19, > 100 µM (inactive); in the assay with TK-10, > 100 µM (inactive); in the assay with A498, > 100 µM (inactive); in the assay on HCT-15, above 100 µM; in the assay with HCC 2998 it was > 100 µM (inactive). Besides, the GI50 is > 100 µM (inactive) with PC-3; > 100 µM (inactive) in the assay with MDA-MB-231; > 100 µM (inactive) with SK-MEL-2; > 100 µM (inactive) in the assay on HOP-62; 64.3 µM (inactive) in the assay on KM12; > 100 µM (inactive) in the assay on NCI-H226. The GI50 in the assay on ACHN, in the assay on 786-0, with K562 and in the assay with NCI-H23 was > 100 µM (inactive) throughout.
Regarding `COC(=O)C(=O)C1(CCC(C)=O)c2ccccc2-c2c(C)ccc(C)c21` (stereo not given), the GI50 in the assay on SNB-19 was > 100 µM (inactive); in the assay on TK-10, 39.6 µM (inactive); in the assay on A498, 55.7 µM (inactive); in the assay with HCT-15, 32.6 µM; with HCC 2998, 87.5 µM (inactive); with SK-MEL-2, 40.6 µM (inactive). Besides, the GI50 in the assay with HOP-62 was 53 µM (inactive); in the assay with KM12, 43 µM (inactive); with CCRF-CEM, 37.1 µM (inactive); with NCI-H226, > 100 µM (inactive); in the assay on ACHN, 46.7 µM (inactive); in the assay on 786-0, 64 µM (inactive). The GI50 in the assay on K562 was 30.1 µM (inactive); with NCI-H23, 24.7 µM (inactive); in the assay with UACC-62, 7.53 µM (inactive).
In the case of `CC12CC[C@H](O)C(C)(C)[C@H]1CC[C@](C)(O)C2COc1ccc2ccc(=O)oc2c1` (stereo not given in full), the GI50 was > 100 µM (inactive) in the assay on SNB-19; > 100 µM (inactive) with TK-10; > 100 µM (inactive) in the assay with A498; above 100 µM in the assay with HCT-15; > 100 µM (inactive) in the assay on HCC 2998; > 100 µM (inactive) in the assay on SK-MEL-2. The GI50 in the assay on HOP-62, in the assay on KM12, in the assay with CCRF-CEM, in the assay with NCI-H226, with ACHN and in the assay with 786-0 was > 100 µM (inactive) throughout. Moreover, the GI50 is 71 µM (inactive) in the assay on K562, > 100 µM (inactive) in the assay on NCI-H23 and 64.4 µM (inactive) in the assay with UACC-62.
For `CCCCCCCCCCCCCC(=O)CC(=O)c1c(O)cccc1O`, the GI50 was 36.4 µM (inactive) with SNB-19; 51.6 µM (inactive) in the assay on TK-10; > 100 µM (inactive) in the assay with A498; 25.2 µM with HCT-15; 38.2 µM (inactive) with HCC 2998; 19.2 µM (inactive) in the assay on SK-MEL-2. The GI50 with HOP-62 is 34.4 µM (inactive); in the assay on KM12 it was 41.1 µM (inactive); with CCRF-CEM, 21.1 µM (inactive); in the assay with NCI-H226, 28.4 µM (inactive); with ACHN it was 28.2 µM (inactive); in the assay with 786-0, 34.9 µM (inactive). The GI50 was 21 µM (inactive) in the assay with K562, 23 µM (inactive) with NCI-H23 and 47.3 µM (inactive) in the assay with UACC-62.
`O=C(Cn1cc(I)c(C(=O)NCC(O)CO)n1)NCC(O)CO` (stereo not given): the GI50 was > 100 µM (inactive) in the assay on SNB-19; > 100 µM (inactive) in the assay with TK-10; > 100 µM (inactive) with A498; above 100 µM with HCT-15; > 100 µM (inactive) in the assay with HCC 2998; > 100 µM (inactive) in the assay on SK-MEL-2. Moreover, the GI50 in the assay with HOP-62, in the assay on KM12, in the assay with CCRF-CEM, in the assay with NCI-H226, in the assay on ACHN and in the assay with 786-0 was > 100 µM (inactive) each time. Further, the GI50 in the assay on K562, in the assay on NCI-H23 and with UACC-62 was > 100 µM (inactive) throughout.
Take `CCc1cccc(C)c1N1C(=O)C(=O)C(c2nc3ccccc3o2)C(=O)C1=O`: the GI50 with SNB-19 was > 100 µM (inactive); with TK-10, > 100 µM (inactive); in the assay on A498 it was > 100 µM (inactive); with HCT-15 it was above 100 µM; in the assay with HCC 2998, > 100 µM (inactive); in the assay with SK-MEL-2, > 100 µM (inactive). In addition, the GI50 with HOP-62, in the assay on KM12, in the assay on CCRF-CEM, with NCI-H226, in the assay with ACHN and with 786-0 was > 100 µM (inactive) throughout. Further, the GI50 with K562, in the assay on NCI-H23 and in the assay with UACC-62 was > 100 µM (inactive) throughout.
For the compound `COc1cccc(C=O)c1C(=O)c1cc(O)ccc1O`, the GI50 is > 100 µM (inactive) with SNB-19; 29.6 µM (inactive) with TK-10; > 44.9 µM (inactive) in the assay with A498; 19.5 µM in the assay with HCT-15; > 100 µM (inactive) with HCC 2998; > 100 µM (inactive) in the assay with SK-MEL-2. Besides, the GI50 with HOP-62 is > 100 µM (inactive); in the assay on KM12, > 100 µM (inactive); in the assay on CCRF-CEM, 3.91 µM (inactive); with NCI-H226, > 100 µM (inactive); in the assay on ACHN, 17.6 µM (inactive); with 786-0, > 100 µM (inactive). The GI50 was > 10 µM (inactive) in the assay with K562, > 81.7 µM (inactive) in the assay with NCI-H23 and 54.8 µM (inactive) with UACC-62.
